How the values were obtained:
[1] = target: T1, progesterone receptor (alkaline phosphatase activity in T47D cells) (Homo sapiens, UniProt P06401); assay: Effects of progestins and antiprogestins on alkaline phosphatase activity in T47D cells (antagonist mode); format: cell-based; details: in the presence of 1 nM progesterone; for IC50: 24 h
T1 construct: determining a compound's effect on alkaline phosphatase activity in T47D cells; endogenous in cells; host or cells: T47D cells
T1 sequence (P06401 1-933): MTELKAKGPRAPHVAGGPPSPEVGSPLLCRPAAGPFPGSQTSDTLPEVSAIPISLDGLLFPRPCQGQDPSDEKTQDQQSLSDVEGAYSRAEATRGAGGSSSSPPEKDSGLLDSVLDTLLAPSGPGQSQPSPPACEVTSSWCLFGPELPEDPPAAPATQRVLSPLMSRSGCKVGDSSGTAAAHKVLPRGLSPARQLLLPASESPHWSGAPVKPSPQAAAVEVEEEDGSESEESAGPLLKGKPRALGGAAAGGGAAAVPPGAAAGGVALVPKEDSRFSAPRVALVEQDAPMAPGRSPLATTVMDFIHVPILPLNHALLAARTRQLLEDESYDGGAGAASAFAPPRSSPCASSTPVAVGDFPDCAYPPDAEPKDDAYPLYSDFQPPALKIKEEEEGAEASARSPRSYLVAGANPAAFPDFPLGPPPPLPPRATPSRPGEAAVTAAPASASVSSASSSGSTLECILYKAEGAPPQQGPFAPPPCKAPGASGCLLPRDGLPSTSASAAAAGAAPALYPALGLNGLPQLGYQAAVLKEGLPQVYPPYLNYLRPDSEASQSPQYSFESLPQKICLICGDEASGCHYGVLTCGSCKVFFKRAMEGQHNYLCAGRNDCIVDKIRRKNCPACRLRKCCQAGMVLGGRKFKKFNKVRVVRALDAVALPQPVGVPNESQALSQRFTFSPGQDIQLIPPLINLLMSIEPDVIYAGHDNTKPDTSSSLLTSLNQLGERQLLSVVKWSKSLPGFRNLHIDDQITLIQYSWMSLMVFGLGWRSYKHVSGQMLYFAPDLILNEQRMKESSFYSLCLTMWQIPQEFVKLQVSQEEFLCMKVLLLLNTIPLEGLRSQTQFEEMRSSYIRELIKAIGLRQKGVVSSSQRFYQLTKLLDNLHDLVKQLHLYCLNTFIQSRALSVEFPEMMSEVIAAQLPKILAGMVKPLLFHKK
Method: (1) Effects of Progestins and Antiprogestins on Alkaline Phosphatase Activity in T47D Cells.
PURPOSE: To identify progestins or antiprogestins by determining a compound's effect on alkaline phosphatase activity in T47D cells.
Culture medium: • DMEM:F12 (1:1) (GIBCO, BRL) supplemented with 5% (v/v) charcoal stripped fetal bovine serum (not heat-inactivated), 100 U/mL penicillin, 100 μg/mL streptomycin, and 2 mM the GlutaMax™ reagent (GIBCO, BRL).
Alkaline phosphatase assay buffer: • I. 0.1M Tris-HCl, pH 9.8, containing 0.2% the Triton® X-100 reagent • II. 0.1M Tris-HCl, pH 9.8, containing 4 mM p-nitrophenyl phosphate (Sigma). B. Cell Culture and Treatment:
Frozen T47D cells were thawed in a 37° C. water bath and diluted to 280,000 cells/mL in culture medium. To each well in a 96-well plate (Falcon, Becton Dickinson Labware), 180 μL of diluted cell suspension was added.
Twenty μL of reference or test compounds diluted in the culture medium was then added to each well. When testing for progestin antagonist activity, reference antiprogestins or test compounds were added in the presence of 1 nM progesterone. The cells were incubated at 37° C. in a 5% CO2/humidified atmosphere for 24 h.
NOTE: For high throughput screening, one concentration of each compound was tested at 0.3 μg/mL. Based on an average molecular weight of 300 g/mol for the compounds in the library, the concentration was approximately 1 μM. Subsequently, active compounds were tested in dose response assays to determine EC50 and IC50. C. Alkaline Phosphatase Enzyme Assay:
At the end of treatment, the medium was removed from the plate. Fifty μL of assay buffer I was added to each well. The plates were shaken in a titer plate shaker for 15 min. Then 150 μL of assay buffer II was added to each well. Optical density measurements were taken at 5 min intervals for 30 min at a test wavelength of 405 nm.
For reference and test compounds, a dose response curve was generated for dose (X-axis) vs. the rate of enzyme reaction (slope) (Y-axis). Square root-transformed data was used for analysis of variance and nonlinear dose response curve fitting for both agonist and antagonist modes. Huber weighting was used to down-weight the effects of outliers. EC50 or IC50 values were calculated from the retransformed values. JMP software (SAS Institute, Inc.) was used for both one-way analysis of variance and non-linear dose response analysis in both single dose and dose response studies.
Progesterone and trimegestone were reference progestins and RU486 was the reference antiprogestin. All reference compounds were run in full dose response curves and the EC50 and IC50 values were calculated.

| SMILES | melting point [°C] | IC50 [1] [nM] | inhibition at 3 µM ([1]; at 3000 nM) [%] |
| --- | --- | --- | --- |
| C[C@@H]1COC(=O)N1c1nc(-c2ccc(Br)cc2)cs1 [Example 1, (4R)-3-[4-(4-Bromophenyl)-1,3-thiazol-2-yl]-4-methyl-1,3-oxazolidin-2-one] | 197 to 199 |  |  |
| CCC1(CC)COC(=O)N1c1nc(-c2ccc(C#N)cc2)cs1 [Example 2, 4-[2-(4,4-Diethyl-2-oxo-1,3-oxazolidin-3-yl)-1,3-thiazol-4-yl]benzonitrile] | 145 to 147 |  |  |
| CC1(C)COC(=O)N1c1nc(-c2cccc(C#N)c2)cs1 [Example 3, 3-[2-(4,4-dimethyl-2-oxo-1,3-oxazolidin-3-yl)-1,3-thiazol-4-yl]benzonitrile] | 181 to 183 |  |  |
| CC1(C)COC(=N)N1c1nc(-c2ccc(C#N)cc2)cs1 [Example 4, 4-[2-(2-imino-4,4-dimethyl-1,3-oxazolidin-3-yl)-1,3-thiazol-4-yl]benzonitrile] | 158 to 161 | 53.4 |  |
| CC1(C)CO/C(=N\C#N)N1c1nc(-c2ccc(C#N)cc2)cs1 [Example 5, {(2Z)-3-[4-(4-cyanophenyl)-1,3-thiazol-2-yl]-4,4-dimethyl-1,3-oxazolidin-2-ylidene}cyanamide] |  | 64.4 |  |
| CC1(C)CO/C(=N\S(C)(=O)=O)N1c1nc(-c2ccc(C#N)cc2)cs1 [Example 6, N-{(2Z)-3-[4-(4-Cyanophenyl)-1,3-thiazol-2-yl]-4,4-dimethyl-1,3-oxazolidin-2-ylidene}methanesulfonamide] |  |  | 100 |
| CC(=O)/N=C1\OCC(C)(C)N1c1nc(-c2ccc(C#N)cc2)cs1 [Example 7, N-{(2Z)-3-[4-(4-Cyanophenyl)-1,3-thiazol-2-yl]-4,4-dimethyl-1,3-oxazolidin-2-ylidene}acetamide] |  | 10.8 |  |
